Measured values taken from patent publication US20100035943A1, “Oxa-and thiadiazoles and their use as metalloproteinase inhibitors” (VERNALIS (OXFORD) LTD, priority 2002, published 2010).

Key:
Assay type in all cases: biochemical
92 kDa gelatinase (MMP9) = 92 kDa gelatinase (MMP9) (Homo sapiens, UniProt P14780); experiment: MMP9 enzyme inhibition assay (fluorogenic peptide substrate McaPLGLDpaAR); details: recombinant human 92 kDa gelatinase, 37° C., 2 hours
Protocol: (§1) Compounds were tested for inhibitory activity against 92 kDa gelatinase (MMP9) in an assay using a coumarin-labelled peptide substrate, (7-methoxycoumarin-4-yl)acetyl-Pro-Leu-Gly-Leu-(3-[2,4-dinitrophenyl]-L-2,3-diaminopropionyl)-Ala-Arg-NH2 (McaPLGLDpaAR) (Knight et al, FEBS Lett. 1992; 263-266).
(§2) Stock solutions were made up as follows: • Assay Buffer: 100 mM Tris-HCl pH 7.6 containing 100 mM NaCl, 10 mM CaCl2, and 0.05% Brij 35 • Substrate: 0.4 mM McaPLGLDpaAR (from Bachem) (0.437 mg/ml) stock solution in 100% DMSO (stored at −20° C.). Dilute to 8 μM in assay buffer. • Enzyme: Recombinant human 92 kDa gelatinase (MMP-9; APMA (4-aminophenyl • mercuric acetate)—activated if necessary) appropriately diluted in assay buffer.
(§3) Test Compounds were prepared initially as 10 mM compound solution in 100% DMSO, diluted to 1 mM in 100% DMSO, then serially diluted 3-fold in 100% DMSO across columns 1-10 of a 96-well microtitre plate Assay concentration range, 100 μM (column 1) to 5.1 nM (column 10)
(§4) The assay was performed in a total volume of 100 μl per well in 96-well microtitre plates. Activated enzyme (20 μl) was added to the wells followed by 20 μl of assay buffer. Appropriate concentrations of test compounds dissolved in 10 μl of DMSO were then added followed by 50 μl of McaPLGLDpaAR (8 μM, prepared by dilution of DMSO stock in assay buffer). For each assay ten concentrations of test compound were examined in duplicate. Control wells lack either enzyme or test compound. The reactions were incubated at 37° C. for 2 hours. The fluorescence at 405 nm was measured immediately with an SLT Fluostar fluorometer (SLT Labinstruments GmbH, Grödig, Austria) using 320 nm excitation, without stopping the reaction.
(§5) The effect of the test compound was determined from the dose response curve generated by the 10 duplicate concentrations of inhibitor. The IC50 (the concentration of compound required to give a 50% decrease in enzyme activity) was obtained by fitting data to the equation, Y=a+((b−a)/(1+(c/X)^d)). (Y=inhibition achieved for a particular dose; X=the dose in nM; a=minimum y or zero % inhibition; b=maximum y or 100% inhibition; c=is the IC50; d=is the slope). The result was rounded to one significant figure.

metalloelastase (MMP12) = metalloelastase (MMP12) (Homo sapiens, UniProt P39900); experiment: MMP12 enzyme inhibition assay (fluorogenic peptide substrate McaPLGLDpaAR); details: protocol as for MMP9 assay
Protocol: as §2, §3, §4, §5
as §1, with “metalloelastase (MMP12)” for “92 kDa gelatinase (MMP9)”, “263-266). The protocol for this assay was as described for the MMP9 assay above.” for “263-266).”

collagenase (MMP1) = target: T1, collagenase (MMP1) (Homo sapiens, UniProt P03956); experiment: MMP1 enzyme inhibition assay (fluorogenic peptide substrate McaPLGLDpaAR); details: protocol as for MMP9 assay
T1 sequence (P03956 100-469): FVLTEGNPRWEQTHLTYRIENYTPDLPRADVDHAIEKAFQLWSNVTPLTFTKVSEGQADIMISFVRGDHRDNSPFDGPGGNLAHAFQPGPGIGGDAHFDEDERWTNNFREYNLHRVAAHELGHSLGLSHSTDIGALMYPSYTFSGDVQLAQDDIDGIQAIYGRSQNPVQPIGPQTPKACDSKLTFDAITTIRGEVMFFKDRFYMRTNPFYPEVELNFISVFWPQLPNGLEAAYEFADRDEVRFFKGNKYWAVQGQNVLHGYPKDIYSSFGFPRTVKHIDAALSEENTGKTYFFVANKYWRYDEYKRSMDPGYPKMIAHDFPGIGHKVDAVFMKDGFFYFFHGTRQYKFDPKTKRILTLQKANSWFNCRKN
Protocol: as §2, §3, §4, §5
as §1, with “• Compounds” for “Compounds”, “collagenase (MMP1)” for “92 kDa gelatinase (MMP9)”, “263-266). The protocol for this assay was as described for the MMP9 assay above.” for “263-266).”

92 kDa gelatinase (MMP9), sequence (P14780 107-707 limits assumed): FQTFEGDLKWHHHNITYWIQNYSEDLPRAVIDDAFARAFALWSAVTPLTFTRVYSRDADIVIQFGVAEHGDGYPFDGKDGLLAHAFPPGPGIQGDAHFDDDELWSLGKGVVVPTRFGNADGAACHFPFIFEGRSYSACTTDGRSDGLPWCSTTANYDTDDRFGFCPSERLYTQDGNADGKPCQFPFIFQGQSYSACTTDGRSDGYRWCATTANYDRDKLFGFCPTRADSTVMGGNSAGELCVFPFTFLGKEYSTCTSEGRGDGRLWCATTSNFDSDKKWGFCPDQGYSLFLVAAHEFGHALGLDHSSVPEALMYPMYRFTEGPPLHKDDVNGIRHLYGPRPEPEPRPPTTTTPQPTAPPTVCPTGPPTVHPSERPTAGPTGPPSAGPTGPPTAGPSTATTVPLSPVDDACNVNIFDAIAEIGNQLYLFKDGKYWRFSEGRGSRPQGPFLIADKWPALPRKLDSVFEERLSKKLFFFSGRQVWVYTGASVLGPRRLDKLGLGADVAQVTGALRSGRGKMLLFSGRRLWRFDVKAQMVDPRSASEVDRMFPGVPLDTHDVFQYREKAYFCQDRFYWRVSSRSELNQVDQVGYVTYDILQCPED
metalloelastase (MMP12), sequence (P39900 106-470): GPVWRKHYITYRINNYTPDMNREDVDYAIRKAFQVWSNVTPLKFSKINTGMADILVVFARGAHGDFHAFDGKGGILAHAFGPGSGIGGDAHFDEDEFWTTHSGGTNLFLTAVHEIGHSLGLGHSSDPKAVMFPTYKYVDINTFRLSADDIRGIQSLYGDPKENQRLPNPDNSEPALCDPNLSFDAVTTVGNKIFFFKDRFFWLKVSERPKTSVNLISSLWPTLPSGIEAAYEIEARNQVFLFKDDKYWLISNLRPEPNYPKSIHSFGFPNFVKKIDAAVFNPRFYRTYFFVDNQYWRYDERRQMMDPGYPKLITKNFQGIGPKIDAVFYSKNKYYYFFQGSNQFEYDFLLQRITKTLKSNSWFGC

| Compound | IC50 (92 kDa gelatinase (MMP9)) [nM] | IC50 (metalloelastase (MMP12)) [nM] | IC50 (collagenase (MMP1)) [nM] |
| --- | --- | --- | --- |
| CC(C)C[C@@H](C(=O)N[C@H](c1noc(-c2ccccc2)n1)C(C)(C)C)[C@H](O)C(=O)NO [Example 1, 3R-[2,2-Dimethyl-1 S-(5-phenyl-[1,2,4]oxadiazol-3-yl)-propylcarbamoyl]-2S-hydroxy-5-methyl-Hexanohydroxamic Acid] | 100 to 1000 | < 100 | 100 to 1000 |
| CC(C)C[C@@H](C(=O)N[C@H](c1nc(-c2ccccc2)no1)C(C)(C)C)[C@H](O)C(=O)NO [Example 2, 3R-[2,2-Dimethyl-1S-(3-phenyl-[1,2,4]oxadiazol-5-yl)-propylcarbamoyl]-2S-hydroxy-5-methyl-hexanohydroxamic Acid] | 100 to 1000 | < 100 | 100 to 1000 |
| CCOc1ccc(CCC[C@@H](C(=O)N[C@H](c2noc(-c3cccs3)n2)C(C)(C)C)[C@H](O)C(=O)NO)cc1 [Example 3] | < 100 | < 100 | > 10000 |
| CC(C)C[C@@H](C(=O)N[C@H](c1noc(C(C)C)n1)C(C)(C)C)[C@H](O)C(=O)NO [Example 4, 2S-Hydroxy-3R-[1S-(5-isopropyl-[1,2,4]oxadiazol-3-yl)-2,2-dimethyl-propylcarbamoyl]-5-methyl Hexanohydroxamic Acid] | 100 to 1000 | < 100 | 100 to 1000 |
| CC(C)C[C@@H](C(=O)N[C@H](c1noc(CC2CCCC2)n1)C(C)(C)C)[C@H](O)C(=O)NO [Example 6, 2S-Hydroxy-3R-[1S-(5-cyclopentylmethyl-[1,2,4]oxadiazol-3-yl)-2,2-dimethyl-propylcarbamoyl]-5-methyl Hexanohydroxamic Acid] | 1000 to 10000 | < 100 | 100 to 1000 |
| CC(C)C[C@@H](C(=O)N[C@H](c1noc(Cc2cccs2)n1)C(C)(C)C)[C@H](O)C(=O)NO [Example 7, 2S-Hydroxy-3R-[1S-(5-thiopen-2-ylmethyl-[1,2,4]oxadiazol-3-yl)-2,2-dimethyl-propylcarbamoyl]-5-methyl Hexanohydroxamic Acid] | 1000 to 10000 | 100 to 1000 | 1000 to 10000 |
| CCc1nc([C@@H](NC(=O)[C@H](CC(C)C)[C@H](O)C(=O)NO)C(C)(C)C)no1 [Example 8, 2S-Hydroxy-3R-[1S-(5-ethyl-[1,2,4]oxadiazol-3-yl)-2,2-dimethyl-propylcarbamoyl]-5-methyl Hexanohydroxamic Acid] | 100 to 1000 | < 100 | 100 to 1000 |
| CC(C)C[C@@H](C(=O)N[C@H](c1noc(C2CCCC2)n1)C(C)(C)C)[C@H](O)C(=O)NO [Example 9, 2S-Hydroxy-3R-[1S-(5-cyclopentyl-[1,2,4]oxadiazol-3-yl)-2,2-dimethyl-propylcarbamoyl]-5-methyl Hexanohydroxamic Acid] | 1000 to 10000 | < 100 | 100 to 1000 |
| CC(C)C[C@@H](C(=O)N[C@H](c1noc(Cc2ccccc2)n1)C(C)(C)C)[C@H](O)C(=O)NO [Example 10, 2S-Hydroxy-3R-[1S-(5-benzyl-[1,2,4]oxadiazol-3-yl)-2,2-dimethyl-propylcarbamoyl]-5-methyl Hexanohydroxamic Acid] | 1000 to 10000 | < 100 | 1000 to 10000 |
| CC(C)Cc1nc([C@@H](NC(=O)[C@H](CC(C)C)[C@H](O)C(=O)NO)C(C)(C)C)no1 [Example 11, 2S-Hydroxy-3R-[1S-(5-isobutyl-[1,2,4]oxadiazol-3-yl)-2,2-dimethyl-propylcarbamoyl]-5-methyl Hexanohydroxamic Acid] | 1000 to 10000 | < 100 | 1000 to 10000 |
| CC(C)C[C@@H](C(=O)N[C@H](c1noc(C(C)(C)C)n1)C(C)(C)C)[C@H](O)C(=O)NO [Example 12, 2S-Hydroxy-3R-[1S-(5-tert-butyl-[1,2,4]oxadiazol-3-yl)-2,2-dimethyl-propylcarbamoyl]-5-methyl Hexanohydroxamic Acid] | 100 to 1000 | < 100 | 100 to 1000 |
| CC(C)C[C@@H](C(=O)N[C@H](c1noc(CC(C)(C)C)n1)C(C)(C)C)[C@H](O)C(=O)NO [Example 14, 2S-Hydroxy-3R-[1S-(5-(2,2-dimethyl-propyl)-[1,2,4]oxadiazol-3-yl)-2,2-dimethyl-propylcarbamoyl]-5-methyl Hexanohydroxamic Acid] | 1000 to 10000 | < 100 | 1000 to 10000 |
| Cc1ccc(-c2nc([C@@H](NC(=O)[C@H](CC(C)C)[C@H](O)C(=O)NO)C(C)(C)C)no2)cc1 [Example 15, 2S-Hydroxy-3R-[1S-(5-p-tolyl-[1,2,4]oxadiazol-3-yl)-2,2-dimethyl-propylcarbamoyl]-5-methyl Hexanohydroxamic Acid] | 100 to 1000 | < 100 | 100 to 1000 |
| CC(C)C[C@@H](C(=O)N[C@H](c1noc(C2CC2)n1)C(C)(C)C)[C@H](O)C(=O)NO [Example 16, 2S-Hydroxy-3R-[1S-(5-cyclopropyl-[1,2,4]oxadiazol-3-yl)-2,2-dimethyl-propylcarbamoyl]-5-methyl Hexanohydroxamic Acid] | 100 to 1000 | < 100 | 100 to 1000 |
| Cc1nc([C@@H](NC(=O)[C@H](CC(C)C)[C@H](O)C(=O)NO)C(C)(C)C)no1 [Example 17, 2S-Hydroxy-3R-[1S-(5-methyl-[1,2,4]oxadiazol-3-yl)-2,2-dimethyl-propylcarbamoyl]-5-methyl Hexanohydroxamic Acid] | 1000 to 10000 | < 100 | 100 to 1000 |
| CC(C)C[C@@H](C(=O)N[C@H](c1nc(C(C)C)no1)C(C)(C)C)[C@H](O)C(=O)NO [Example 18, 2S-Hydroxy-3R-[1S-(3-isopropyl-[1,2,4]oxadiazol-3-yl)-2,2-dimethyl-propylcarbamoyl]-5-methyl Hexanohydroxamic Acid] | 100 to 1000 | < 100 | 100 to 1000 |
| C=CC[C@H](C(=O)NO)[C@@H](CC(C)C)C(=O)N[C@@H](Cc1ccccc1)c1nc(C)no1 [Example 22, 2S-Allyl-5-methyl-3R-[2-phenyl-1S-(3-methyl-[1,2,4]oxadiazol-5-yl)-ethylcarbamoyl]-hexanohydroxamic Acid] | – | – | < 100 |
| CCCCCCCCCCCCCC[C@H](CC(=O)O)C(=O)N[C@H](c1nc(-c2ccccc2)no1)C(C)(C)C [Example 26, 3R-[2,2-Dimethyl-1S-(3-phenyl-[1,2,4]oxadiazol-5-yl)-propylcarbamoyl]-heptadecanoic Acid] | > 10000 | > 10000 | – |
| CCCCCCCCCCCCCCCC[C@H](CC(=O)O)C(=O)N[C@H](c1nc(-c2ccccc2)no1)C(C)(C)C [Example 27, 3R-[2,2-Dimethyl-1S-(3-phenyl-[1,2,4]oxadiazol-5-yl)-propylcarbamoyl]-nonadecanoic Acid] | > 10000 | > 10000 | – |
| CC(C)(C)[C@H](NC(=O)[C@H](CCCc1ccc(Cl)cc1)CC(=O)O)c1noc(-c2ccccc2)n1 [Example 28, 6-(4-Chloro-phenyl)-3R-[2,2-dimethyl-1S-(5-phenyl-[1,2,4]oxadiazol-3-yl)-propylcarbamoyl]-hexanoic Acid] | – | > 10000 | – |
